The record followed here is patent EP0533925A1, “OPTICAL ISOMER OF R-FORM OF DIPHENYL ETHER DERIVATIVE AND HERBICIDE CONTAINING THE SAME AS ACTIVE INGREDIENT” (TEIJIN LIMITED, priority 1990, dated 1991).

Holding throughout (assay): Herbicidal activity, foliar application of single compounds (Test Examples 1 to 5)
Common to all, as to format: in vivo
Common to all, as to parameters: key: 0 means the state where the plants are as sound as before the application of the active compound; 1, 2, 3 and 4 mean varying degrees of the enfeebled state of the plants between 0 and 5; 1, 2, 3 and 4 mean varying degrees of the enfeebled state of the plants between 0 and 5; 1, 2, 3 and 4 mean varying degrees of the enfeebled state of the plants between 0 and 5; 1, 2, 3 and 4 mean varying degrees of the enfeebled state of the plants between 0 and 5; 5 is the state where the plants are withered or killed by application of the active compound
What all share (conditions): Rate of Application 0.031 kg/ha; 3 weeks after application

Assay [1] concerns Abutilon theophrosti. On the procedure:
(§1) In these examples, all parts means parts by weight, unless otherwise noted. The herbicidal activity was evaluated on a scale of 6 degrees. In other words, 0 means the state where the plants are as sound as before the application of the active compound, while 5 is the state where the plants are withered or killed by application of the active compound, and 1, 2, 3 and 4 mean varying degrees of the enfeebled state of the plants between 0 and 5.
(§2) The diphenyl ethers shown in Table 2 were added to 5000 parts of a mixture of acetone and water (1 : 1 by volume), and 2.6 parts of a nonionic surfactant (Sorpol 2680, tradename) was added to form a solution, so that the ether becomes the prescribed amount in each solution.
(§3) Seeds of plants were sown in the soil, cultivated for 2 to 3 weeks, after germination, then the plants were used for the tests.
(§4) The prepared solution was applied to these plants at the prescribed rate of application in total, then the plants were continuously cultivated for 3 weeks without applying the solution.
(§5) The alphabetical symbols in Tables 2 and 3 represent the following plants, respectively: a: Digitaria adscendens b: Setaria viridis c: Sorghum halepense d: Chenopodium album var. centrorubrum e: Amaranthus mangostanus f: Astragalus sinicus g: Abutilon theophrosti h: Solanum nigrum i: Xanthium strumarium j: Soybean; Glycine max k: Corn; Zea mays Table 2

The test system of assay [2] is Amaranthus mangostanus. How it is done: as §1, §2, §3, §4, §5
Assay [3] relates to Sorghum halepense. On the procedure:
as §1, §2, §3, §4, §5

Assay [4] concerns Soybean; Glycine max. On the procedure: as §1, §2, §3, §4, §5
Assay [5] concerns Setaria viridis. How it is done: as §1, §2, §3, §4, §5
For assay [6], the system named is Chenopodium album var. centrorubrum. How it is done:
as §1, §2, §3, §4, §5

Assay [7] relates to Digitaria adscendens. On the procedure:
as §1, §2, §3, §4, §5

In assay [8] the test system is Xanthium strumarium. How it is done:
as §1, §2, §3, §4, §5

Assay [9] has as its system Corn; Zea mays. On the procedure:
as §1, §2, §3, §4, §5

Assay [10] relates to Astragalus sinicus. On the procedure: as §1, §2, §3, §4, §5
Assay [11] has as its system Solanum nigrum. How it is done: as §1, §2, §3, §4, §5

In the case of `COC(=O)[C@H](C)Oc1cc(Oc2ccc(C(F)(F)F)cc2Cl)ccc1C#N` [S-enantiomer (1), S-enantiomer of methyl α-[2-cyano-5-(2-chloro-4-trifluoromethylphenoxy)phenoxy]propionate, reference compound], in assay [1], the “herbicidal activity, Plants g” value came out at 1. For the same compound, the “herbicidal activity, Plants e” value in assay [2] worked out at 0. Besides, the “herbicidal activity, Plants c” value in assay [3] is 1. The “herbicidal activity, Plants j” value in assay [4] is on record as 1. The “herbicidal activity, Plants b” value in assay [5] is on record as 0. The “herbicidal activity, Plants d” value in [6] was 1. Also, the “herbicidal activity, Plants a” value in [7] came out at 1. Also, the “herbicidal activity, Plants i” value in assay [8] turned out to be 0. In addition, the “herbicidal activity, Plants k” value in assay [9] is 0. Also, in assay [10], the “herbicidal activity, Plants f” value was 1. In addition, the “herbicidal activity, Plants h” value in assay [11] came out at 2.
